# Test results from US4464385A, “Treatment of diabetic complications with hydantoins” (Alcon Laboratories, Inc., priority 1982, dated 1984).
# Tested on: cataracts in rats
# Experiment: Prevention or retardation of cataracts in galactose-fed rats
# Type: in vivo, rat
# Conditions: 30% galactose diet, A,C,E 0.0025%, B,D 0.01%
# Description: The compounds to be tested were:
# Test compound/diet mixtures were formulated as follows: […]
# Similarly, the 0.01% level was designed to provide a drug concentration of 20 mg per kilogram per day.
# All animals were fed the Purina Laboratory Chow and water, ad libitum for a two day acclimatization period. The indicated test compound/diet mixture then was introduced to all animals on Study Day 1 and the animals were maintained on this diet throughout thirty days of the study.
# Sufficient amounts of test compound/diet mixture were maintained in the food hoppers to allow the animals to eat ad libitum. All aliquots of test compound/diet mixture added to the food hoopers were weighed and the weights, as well as day of addition, recorded.
# Twelve animals were assigned to each treatment with each compound at the indicated percentage by total weight of feed. All eyes were examined with a handheld ophthalmoscope and/or penlight.
smiles,measurement,setting,value
CSc1ccc2c(c1)C1(CCO2)NC(=O)NC1=O (stereo not drawn) [B],"% of Total Eyes, + (vacuole)",Study Day 2,0%
same,"% of Total Eyes, - (Normal)",Study Day 2,100.0%
same,"% of Total Eyes, N (nuclear cataract)",Study Day 2,0%
same,"% of Total Eyes, S (snowflake)",Study Day 2,0%
same,"Number of Eyes Observed, + (vacuole)",Study Day 2,0 eyes
same,"Number of Eyes Observed, - (Normal)",Study Day 2,24 eyes
same,"Number of Eyes Observed, N (nuclear cataract)",Study Day 2,0 eyes
same,"Number of Eyes Observed, S (snowflake)",Study Day 2,0 eyes
same,"Number of Eyes Observed, ±",Study Day 2,0 eyes
same,"% of Total Eyes, + (vacuole)",Study Day 3,0%
same,"% of Total Eyes, - (Normal)",Study Day 3,100.0%
same,"% of Total Eyes, N (nuclear cataract)",Study Day 3,0%
same,"% of Total Eyes, S (snowflake)",Study Day 3,0%
same,"Number of Eyes Observed, + (vacuole)",Study Day 3,0 eyes
same,"Number of Eyes Observed, - (Normal)",Study Day 3,24 eyes
same,"Number of Eyes Observed, N (nuclear cataract)",Study Day 3,0 eyes
same,"Number of Eyes Observed, S (snowflake)",Study Day 3,0 eyes
same,"Number of Eyes Observed, ±",Study Day 3,0 eyes
same,"% of Total Eyes, + (vacuole)",Study Day 4,0%
same,"% of Total Eyes, - (Normal)",Study Day 4,100.0%
same,"% of Total Eyes, N (nuclear cataract)",Study Day 4,0%
same,"% of Total Eyes, S (snowflake)",Study Day 4,0%
same,"Number of Eyes Observed, + (vacuole)",Study Day 4,0 eyes
same,"Number of Eyes Observed, - (Normal)",Study Day 4,24 eyes
same,"Number of Eyes Observed, N (nuclear cataract)",Study Day 4,0 eyes
same,"Number of Eyes Observed, S (snowflake)",Study Day 4,0 eyes
same,"Number of Eyes Observed, ±",Study Day 4,0 eyes
same,"% of Total Eyes, + (vacuole)",Study Day 5,0%
same,"% of Total Eyes, - (Normal)",Study Day 5,91.7%
same,"% of Total Eyes, N (nuclear cataract)",Study Day 5,0%
same,"% of Total Eyes, S (snowflake)",Study Day 5,0%
same,"Number of Eyes Observed, + (vacuole)",Study Day 5,0 eyes
same,"Number of Eyes Observed, - (Normal)",Study Day 5,22 eyes
same,"Number of Eyes Observed, N (nuclear cataract)",Study Day 5,0 eyes
same,"Number of Eyes Observed, S (snowflake)",Study Day 5,0 eyes
same,"Number of Eyes Observed, ±",Study Day 5,2 eyes
same,"% of Total Eyes, + (vacuole)",Study Day 6,0%
same,"% of Total Eyes, - (Normal)",Study Day 6,62.5%
same,"% of Total Eyes, N (nuclear cataract)",Study Day 6,0%
same,"% of Total Eyes, S (snowflake)",Study Day 6,0%
same,"Number of Eyes Observed, + (vacuole)",Study Day 6,0 eyes
same,"Number of Eyes Observed, - (Normal)",Study Day 6,15 eyes
same,"Number of Eyes Observed, N (nuclear cataract)",Study Day 6,0 eyes
same,"Number of Eyes Observed, S (snowflake)",Study Day 6,0 eyes
same,"Number of Eyes Observed, ±",Study Day 6,9 eyes
same,"% of Total Eyes, + (vacuole)",Study Day 8,8.3%
same,"% of Total Eyes, - (Normal)",Study Day 8,41.6%
same,"% of Total Eyes, N (nuclear cataract)",Study Day 8,0%
same,"% of Total Eyes, S (snowflake)",Study Day 8,0%
same,"Number of Eyes Observed, + (vacuole)",Study Day 8,2 eyes
same,"Number of Eyes Observed, - (Normal)",Study Day 8,10 eyes
same,"Number of Eyes Observed, N (nuclear cataract)",Study Day 8,0 eyes
same,"Number of Eyes Observed, S (snowflake)",Study Day 8,0 eyes
same,"Number of Eyes Observed, ±",Study Day 8,12 eyes
same,"% of Total Eyes, + (vacuole)",Study Day 10,25.0%
same,"% of Total Eyes, - (Normal)",Study Day 10,37.5%
same,"% of Total Eyes, N (nuclear cataract)",Study Day 10,0%
same,"% of Total Eyes, S (snowflake)",Study Day 10,0%
same,"Number of Eyes Observed, + (vacuole)",Study Day 10,6 eyes
same,"Number of Eyes Observed, - (Normal)",Study Day 10,9 eyes
same,"Number of Eyes Observed, N (nuclear cataract)",Study Day 10,0 eyes
same,"Number of Eyes Observed, S (snowflake)",Study Day 10,0 eyes
same,"Number of Eyes Observed, ±",Study Day 10,9 eyes
same,"% of Total Eyes, + (vacuole)",Study Day 12,41.6%
same,"% of Total Eyes, - (Normal)",Study Day 12,29.2%
same,"% of Total Eyes, N (nuclear cataract)",Study Day 12,0%
same,"% of Total Eyes, S (snowflake)",Study Day 12,0%
same,"Number of Eyes Observed, + (vacuole)",Study Day 12,10 eyes
same,"Number of Eyes Observed, - (Normal)",Study Day 12,7 eyes
same,"Number of Eyes Observed, N (nuclear cataract)",Study Day 12,0 eyes
same,"Number of Eyes Observed, S (snowflake)",Study Day 12,0 eyes
same,"Number of Eyes Observed, ±",Study Day 12,7 eyes
same,"% of Total Eyes, + (vacuole)",Study Day 14,78.0%
same,"% of Total Eyes, - (Normal)",Study Day 14,12.5%
same,"% of Total Eyes, N (nuclear cataract)",Study Day 14,0%
same,"% of Total Eyes, S (snowflake)",Study Day 14,0%
same,"Number of Eyes Observed, + (vacuole)",Study Day 14,18 eyes
same,"Number of Eyes Observed, - (Normal)",Study Day 14,3 eyes
same,"Number of Eyes Observed, N (nuclear cataract)",Study Day 14,0 eyes
same,"Number of Eyes Observed, S (snowflake)",Study Day 14,0 eyes
same,"Number of Eyes Observed, ±",Study Day 14,3 eyes
same,"% of Total Eyes, + (vacuole)",Study Day 16,83.3%
same,"% of Total Eyes, - (Normal)",Study Day 16,0%
same,"% of Total Eyes, N (nuclear cataract)",Study Day 16,0%
same,"% of Total Eyes, S (snowflake)",Study Day 16,0%
same,"Number of Eyes Observed, + (vacuole)",Study Day 16,20 eyes
same,"Number of Eyes Observed, - (Normal)",Study Day 16,0 eyes
same,"Number of Eyes Observed, N (nuclear cataract)",Study Day 16,0 eyes
same,"Number of Eyes Observed, S (snowflake)",Study Day 16,0 eyes
same,"Number of Eyes Observed, ±",Study Day 16,4 eyes
same,"% of Total Eyes, + (vacuole)",Study Day 18,95.8%
same,"% of Total Eyes, - (Normal)",Study Day 18,0%
same,"% of Total Eyes, N (nuclear cataract)",Study Day 18,0%
same,"% of Total Eyes, S (snowflake)",Study Day 18,0%
same,"Number of Eyes Observed, + (vacuole)",Study Day 18,23 eyes
same,"Number of Eyes Observed, - (Normal)",Study Day 18,0 eyes
same,"Number of Eyes Observed, N (nuclear cataract)",Study Day 18,0 eyes
same,"Number of Eyes Observed, S (snowflake)",Study Day 18,0 eyes
same,"Number of Eyes Observed, ±",Study Day 18,1 eyes
same,"% of Total Eyes, + (vacuole)",Study Day 20,91.7%
same,"% of Total Eyes, - (Normal)",Study Day 20,0%
same,"% of Total Eyes, N (nuclear cataract)",Study Day 20,0%
same,"% of Total Eyes, S (snowflake)",Study Day 20,4.2%
same,"Number of Eyes Observed, + (vacuole)",Study Day 20,22 eyes
same,"Number of Eyes Observed, - (Normal)",Study Day 20,0 eyes
same,"Number of Eyes Observed, N (nuclear cataract)",Study Day 20,0 eyes
same,"Number of Eyes Observed, S (snowflake)",Study Day 20,1 eyes
same,"Number of Eyes Observed, ±",Study Day 20,1 eyes
same,"% of Total Eyes, + (vacuole)",Study Day 22,70.8%
same,"% of Total Eyes, - (Normal)",Study Day 22,0%
same,"% of Total Eyes, N (nuclear cataract)",Study Day 22,0%
same,"% of Total Eyes, S (snowflake)",Study Day 22,29.2%
same,"Number of Eyes Observed, + (vacuole)",Study Day 22,17 eyes
same,"Number of Eyes Observed, - (Normal)",Study Day 22,0 eyes
same,"Number of Eyes Observed, N (nuclear cataract)",Study Day 22,0 eyes
same,"Number of Eyes Observed, S (snowflake)",Study Day 22,7 eyes
same,"Number of Eyes Observed, ±",Study Day 22,0 eyes
same,"% of Total Eyes, + (vacuole)",Study Day 24,45.8%
same,"% of Total Eyes, - (Normal)",Study Day 24,0%
same,"% of Total Eyes, N (nuclear cataract)",Study Day 24,0%
same,"% of Total Eyes, S (snowflake)",Study Day 24,54.2%
same,"Number of Eyes Observed, + (vacuole)",Study Day 24,11 eyes
same,"Number of Eyes Observed, - (Normal)",Study Day 24,0 eyes
same,"Number of Eyes Observed, N (nuclear cataract)",Study Day 24,0 eyes
same,"Number of Eyes Observed, S (snowflake)",Study Day 24,13 eyes
same,"Number of Eyes Observed, ±",Study Day 24,0 eyes
same,"% of Total Eyes, + (vacuole)",Study Day 26,20.8%
same,"% of Total Eyes, - (Normal)",Study Day 26,0%
same,"% of Total Eyes, N (nuclear cataract)",Study Day 26,0%
same,"% of Total Eyes, S (snowflake)",Study Day 26,79.2%
same,"Number of Eyes Observed, + (vacuole)",Study Day 26,5 eyes
same,"Number of Eyes Observed, - (Normal)",Study Day 26,0 eyes
same,"Number of Eyes Observed, N (nuclear cataract)",Study Day 26,0 eyes
same,"Number of Eyes Observed, S (snowflake)",Study Day 26,19 eyes
same,"Number of Eyes Observed, ±",Study Day 26,0 eyes
same,"% of Total Eyes, + (vacuole)",Study Day 28,8.3%
same,"% of Total Eyes, - (Normal)",Study Day 28,0%
same,"% of Total Eyes, N (nuclear cataract)",Study Day 28,0%
same,"% of Total Eyes, S (snowflake)",Study Day 28,91.7%
same,"Number of Eyes Observed, + (vacuole)",Study Day 28,2 eyes
same,"Number of Eyes Observed, - (Normal)",Study Day 28,0 eyes
same,"Number of Eyes Observed, N (nuclear cataract)",Study Day 28,0 eyes
same,"Number of Eyes Observed, S (snowflake)",Study Day 28,22 eyes
same,"Number of Eyes Observed, ±",Study Day 28,0 eyes
same,"% of Total Eyes, + (vacuole)",Study Day 30,4.2%
same,"% of Total Eyes, - (Normal)",Study Day 30,0%
same,"% of Total Eyes, N (nuclear cataract)",Study Day 30,0%
same,"% of Total Eyes, S (snowflake)",Study Day 30,95.8%
same,"Number of Eyes Observed, + (vacuole)",Study Day 30,1 eyes
same,"Number of Eyes Observed, - (Normal)",Study Day 30,0 eyes
same,"Number of Eyes Observed, N (nuclear cataract)",Study Day 30,0 eyes
same,"Number of Eyes Observed, S (snowflake)",Study Day 30,23 eyes
same,"Number of Eyes Observed, ±",Study Day 30,0 eyes
